The record followed here is patent US11262362B2, “2-hydroxyglutarate as a biomarker for chronic hypoxia” (MEMORIAL SLOAN KETTERING CANCER CENTER, priority 2011, dated 2022).

For this test, the system named is SF188 cells. The experiment in a line: Viability of glutamine-starved SF188 cells in hypoxia (trypan blue dye exclusion). The format is cell-based, human. The following applies: 0.5% O2, glutamine-deficient medium supplemented with 7 mM dimethyl α-ketoglutarate, 48 h. The method, then:
In FIG. 2(A), SF188 cells were cultured for 24 h in complete medium equilibrated with either 21% O2 (Normoxia) or 0.5% O2 (Hypoxia). Culture medium was then removed from cells and analyzed for glutamine levels which were compared to the glutamine levels in fresh medium. Data are the mean±SEM of 3 independent experiments. […] Cells were cultured in complete medium equilibrated with 0.5% O2 for 24 h, followed by an additional 48 h at 0.5% O2 in either complete medium (+Gln), glutamine-deficient medium (−Gln), or glutamine-deficient medium supplemented with 7 mM dimethyl α-ketoglutarate (−Gln+αKG). All medium was pre-conditioned in 0.5% O2. Cell viability was determined by trypan blue dye exclusion. Data are the mean and range from 2 independent experiments. FIG. 2(C) depicts a model of the pathways for cit+4 and cit+5 production from [U-^13C]glutamine (glutamine+5). […] Cells were cultured for 24 h as in (A), followed by 4 h of culture in glutamine-deficient medium supplemented with 4 mM [U-^13C]glutamine. ^13C enrichment in cellular citrate was quantitated with GC-MS. […]
SF188 and RCC4 cells were cultured in Dulbecco's Modified Eagle's Medium (DMEM; Invitrogen 11965), 10% fetal bovine serum (FBS; Gemini Biosystems), 100 units/ml Penicillin, 100 ug/ml Streptomycin, 25 mM glucose, and 6 mM L-glutamine. […] Viability was determined by trypan blue exclusion. […]

Take `COC(=O)CCC(=O)C(=O)OC` [dimethyl α-ketoglutarate]: the “cell viability upon glutamine withdrawal” value was “rescued the defect in cell viability”.
